Measured values from patent US6716582B2 (priority 2000, dated 2004).
Like-named read-outs stand apart in the source and are kept apart here.

Assays:
[1] = tested on: clpB-luxCDABE gene fusion; settings: 38 min
Source text: Plasmid DNA was isolated from lux-a.pk043.d3, digested with restriction enzyme XmaI, and ligated with T4 DNA ligase. The ligation reaction was used to transform E. coli strain DPD 1675 by electroporation. Transformants were selected by ampicillin resistance. […] The response to ethanol treatment of two of these light producing transformants that putatively contain inverted chromosomal inserts, of lux-a.pk054.c3 (DPD2243) that contains a plasmid with the clpB promoter operably linked to the luxCDABE reporter and of the original lux-a.pk043.d3 were compared. Actively growing cultures at 37° C. in LB medium were treated with 4% ethanol and light production was quantitated at 37° C. using a microplate luminometer (Dynex ML3000). Table 17 summarizes the average bioluminescence of duplicate samples at 38 min after treatment.

[2] = tested on: SOS regulon luxCDABE gene fusions; assay: SOS regulon lux fusions: stress response in liquid LB; type: cell-based, E. coli
Protocol: (§1) To test the stress responses, one or two single colonies of each selected strain were used to inoculate 5.0 ml of LB medium containing 150 μg/ml of ampicillin. These cultures were grown overnight at 37° C. then diluted by adding 50 μl or 100 μl of the overnight culture into 10.0 ml of fresh LB medium (without ampicillin) and grown with agitation at 37° C. until the culture was in exponential phase with readings on a Klett-Summerson colorimeter containing the red filter of between 10 and 40. These actively growing cultures were immediately used to initiate a stress response experiment by adding 50 μl of cultures to 50 μl of LB medium containing various concentrations of chemical in the wells a 96 well luminometer plate. This division of the actively growing culture at the time of chemical addition ensured identical populations were present when the stress was imposed. Light production was measured in a Dynex ML3000 luminometer at 37° C. The dimensionless units of light production, relative light units (RLU), are obtained by comparison with the light reading from an internal light-emitting diode.
The ability of these promoter-luxCDABE fusions to report activation of the SOS stress response was tested using nalidixic acid, a known, potent chemical inducer. The final concentrations of nalidixic acid were 1, 5, 25, and 125 μg/ml for all but strain DPD2293, which was tested at 80, 40, 20, 10, 5, 2.5, and 1.25 μg/ml.
Specificity of responses was tested by measuring the effect of ethanol on these SOS regulon gene fusions.

[3] = tested on: heat shock regulon luxCDABE gene fusions; assay: heat shock regulon lux fusions: stress response in liquid LB; type: cell-based, E. coli; settings: each of the six heat shock fusion strains; at least two of 5, 4, 3, 2 (v/v)% ethanol
Protocol: as §1

[4] = tested on: OxyR regulon ahpC-luxCDABE gene fusions; settings: three ahpC-lux strains; 0.016-0.00025%
Protocol: as §1
To test if these strains would report on activation of the OxyR-controlled oxidative stress response, each was treated with hydrogen peroxide at 0.016, 0.008, 0.004, 0.002, 0.001, 0.0005, 0.00025%.

[5] = tested on: ahpC-luxCDABE gene fusions in pcnB- host; settings: both ahpC-lux fusions in pcnB- host; 0.004-0.00006%, all seven concentrations
Protocol: as §1

[6] = tested on: luxCDABE gene fusions to MMC array genes; assay: Lux-A Collection fusions tested for MMC induction; type: cell-based, E. coli
Protocol: The Lux-A Collection of reporter gene fusions was examined for presence of fusions to the genes in Table 11. […] Each of these was tested for induction by MMC at several doses over a time course of 100 minutes.
As expected, the expression of the known SOS genes was elevated; however the expression of several was elevated less than 2-fold (Table 12) and as such were within a large group of 792 genes the expression of which was elevated by 20% or more. Most of these are likely due to artifacts in the array data rather than to actual biologically relevant responses. To test if strains carrying luxCDABE gene fusions would yield the expected positive result, the three gene fusions that were available in the Lux-A Collection of reporter gene fusions were tested for mitomycin C responses.

yebF-luxCDABE fusion = assay: inverted yebF-luxCDABE fusion induction by DNA damaging agents; type: cell-based, E. coli; settings: yebF-luxCDABE fusion; mitomycin C, FIG. 2
Source text: In this case, a divergent promoter to the purT gene was present in the chromosomal fragment and strains containing the backward yebF fusion produced light. Following isolation of plasmid DNA, XmaI digestion that releases the insert DNA from the vector, religation and transformation, 10% of the transformants produced light. […] The orientation of the inserted segment to yield a fusion of yebF to the luxCDABE operon was confirmed by DNA sequence analysis.
To test inverting of a chromosomal segment in a plasmid containing divergent promoters, the backward fusion to yebF was chosen. […] In this case, a divergent promoter to the purT gene was present in the chromosomal fragment and strains containing the backward yebF fusion produced light. Following XmaI digestion, religation and transformation, 10% of the transformants produced light. […] This was verified by DNA sequence analysis. Thus, inverting chromosomal segments containing divergent promoters is possible and is facilitated if the two promoters can be distinguished by their biological activity.

[7] = tested on: E. coli strain MG1655 gene expression; assay: DNA microarray experiment with mitomycin C; type: cell-based; settings: MMC 250 ng/ml, 40 min
Protocol: The E. coli strain MG1655 (rph-1) was used. Cultures grown in LB at 37° C. overnight were diluted 1 to 250 into fresh LB and grown at 37° C. with aeration. Each subculture was split into two 100 ml cultures when the reading on a Klett-Sammerson calorimeter with the red filter reads 20 Klett units. MMC (Sigma, dissolved in ddH2O) at a final concentration of 250 ng/ml, a sub-lethal dose, was added to one of the split cultures. The other culture was a no addition control. Incubation at 37° C. continued for another 40 minutes, then cells were collected for preparing total RNA. The MMC treated culture and its control reached 60 and 55 Klett units, respectively after 40 minute treatment.
Total RNA purification, first-strand cDNA labeling, preparation of the E. coli whole genome high-density microarray chips, hybridization and data analysis were done as previously described (Wei et al. (2001) J. Bacteriol. 183: 545-556). Both cy3 and cy5 were used in probe labeling, and the hybridization experiments were repeated by swapping the fluorescence cy dyes between each pair of MMC treated sample and its blank control.
Ratios of expression in the mitomycin C treated samples vs. controls were calculated for all genes in the DNA array. Ratios greater than or equal to 2 were considered induced genes, while those with ratios less than 2 fold were considered uninduced. The known SOS genes (Kim et al., (1997) Proc Natl Acad Sci USA Dec. 9, 1997; 94(25):13792-7; Lomba et al., (1997) FEMS Microbiol Lett 156:119-122; Walker, G. C. (1996). In Escherichia coli and Salmonella: Cellular and Molecular Biology. ASM Press pp.1400-1416) fell into both the induced (Table 11) and uninduced classes (Table 12).

[8] = tested on: SoxR/S regulon luxCDABE gene fusions; assay: SoxR/S regulon lux fusions: stress response in liquid LB; type: cell-based, E. coli; settings: each of four strains; 1000-16 μg/ml, all seven concentrations
Protocol: Like the SOS and heat shock regulon fusions, these had basal light production greater than the promoterless parental plasmid indicating the presence of a promoter. Responsiveness of four of these strains to a known inducer of the SoxR/S regulon, methyl viologen, was tested at 1000, 500, 250, 125, 62, 31 and 16 μg/ml. […] Table 8 gives the response ratio for 250 μg/ml at 120 minutes of treatment for the four tested strains. Here again, the biologically appropriate response was observed.

Q: With `CCO` [Ethanol] as the molecule, how does the “Light production in LB + 4% ethanol” value ([1]; Inverted lux-a.pk043.d3, second isolate) read?
A: 29.63 RLU

Q: And the “Light production in LB + 4% ethanol” value ([1]; inverted lux-a.pk043.d3, first isolate)?
A: 8.17 RLU

Q: What about the response ratio ([2]; DPD2249 dinP-lux, 3% ethanol, 40 min) of the same molecule?
A: 0.80

Q: What about the “bioluminescence vs untreated control” value ([2]; SOS regulon fusions, 5, 4, or 3% (v/v) ethanol) of the same molecule?
A: little to no increased bioluminescence

Q: And the “bioluminescence vs untreated control” value [3]?
A: increased bioluminescence

Q: Which results are given for `OO` [H2O2, hydrogen peroxide]?
A: bioluminescence induction [4]: minimally induced; bioluminescence induction [5]: dramatically induced increased bioluminescence

Q: Which results are given for `CO[C@@]12[C@H](COC(N)=O)C3=C(C(=O)C(C)=C(N)C3=O)N1C[C@@H]1N[C@@H]12` [MMC, mitomycin C]?
A: gene expression response ([6]; four fusions to genes not previously known MMC inducible): no evidence of increased gene expression; induction response ([6]; four fusions to known SOS genes of Table 11, several doses, 100 min time course): induction of increased bioluminescence; bioluminescence response ([6]; three fusions to SOS genes of Table 12): induced increased bioluminescence; induction of bioluminescence (yebF-luxCDABE fusion): induction by mitomycin C was demonstrated; Fold induction/array expt ([7]; b0531): 3.3; Fold induction/array expt ([7]; b0571 (ylcA)): 2.2; Fold induction/array expt ([7]; b1228): 2.5; Fold induction/array expt ([7]; b1847 (yebF)): 3.3; Fold induction/array experiment ([7]; b1848 (yebG)): 5.8; Fold induction/array expt ([7]; b2559): 2.0; Fold induction/array expt ([7]; b2940): 2.3; Fold induction/array expt ([7]; b3199): 2.0; Fold induction/array expt ([7]; cspA): 2.9; Fold induction/array experiment ([7]; dinB (dinP)): 2.0; Fold induction/array experiment ([7]; dinD): 2.2; Fold induction/array experiment ([7]; dinF): 1.8; Fold induction/array experiment ([7]; dinG): 1.4; Fold induction/array experiment ([7]; dinI): 6.7; Fold induction/array expt ([7]; dniR): 2.1; Fold induction/array expt ([7]; exbD): 2.2; Fold induction/array experiment ([7]; himA): 1.3; Fold induction/array expt ([7]; hslS): 6.7; Fold induction/array expt ([7]; hslT): 4.0; Fold induction/array expt ([7]; infA): 2.3; Fold induction/array expt ([7]; insA_4): 2.1; Fold induction/array expt ([7]; insB_1): 2.1; Fold induction/array expt ([7]; insB_2): 2.2; Fold induction/array experiment ([7]; lexA): 3.6; Fold induction/array expt ([7]; mioC): 2.1; Fold induction/array experiment ([7]; polB (dinA)): 1.2; Fold induction/array experiment ([7]; recA): 3.0; Fold induction/array experiment ([7]; recN): 8.3; Fold induction/array experiment ([7]; ruvA): 2.0; Fold induction/array experiment ([7]; ruvB): 1.5; Fold induction/array expt ([7]; secG): 2.2; Fold induction/array experiment ([7]; sulA): 5.8; Fold induction/array expt ([7]; trkH): 2.1; Fold induction/array experiment ([7]; umuC): 2.1; Fold induction/array experiment ([7]; umuD): 1.2; Fold induction/array experiment ([7]; uvrA): 2.3; Fold induction/array experiment ([7]; uvrB): 2.1; Fold induction/array experiment ([7]; uvrD): 1.4; Fold induction/array expt ([7]; xseA): 2.0

Q: With `C[n+]1ccc(-c2cc[n+](C)cc2)cc1` [Methyl viologen, methyl viologen] as the molecule, how does the “bioluminescence vs untreated control” value [8] read?
A: induced increased bioluminescence
